# The source made the active and inactive calls.
# Assays:
# [1] = biological target: T1, Carboxy-terminal domain RNA polymerase II polypeptide A small phosphatase 1 (Homo sapiens, UniProt Q9GZU7); assay: CTDSP1 inhibitors, concentration-response, biochemical, absorbance readout, ultra-high-throughput screen actives (AID 540297); format: functional
# T1 sequence (Q9GZU7 whole entry): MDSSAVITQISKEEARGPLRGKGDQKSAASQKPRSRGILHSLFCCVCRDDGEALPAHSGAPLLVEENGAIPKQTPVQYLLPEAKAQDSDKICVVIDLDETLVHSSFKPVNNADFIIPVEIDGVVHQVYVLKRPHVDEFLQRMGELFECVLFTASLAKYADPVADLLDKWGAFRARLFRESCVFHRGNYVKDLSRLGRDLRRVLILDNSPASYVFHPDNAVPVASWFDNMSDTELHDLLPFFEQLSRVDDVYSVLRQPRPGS
# [2] = Luminescence Cell-Based Dose Confirmation HTS to Identify Activators of 5'UTR Stem-Loop Driven Alpha-Synuclein mRNA Translation in H4 Neuroglioblastoma Cells. [Related pubchem assays: 1829 (Project Summary), 1814 (Primary HTS)]; format: functional
# [3] = viability of uninfected HEp-2 cells – cell-based, HTS, cytotoxicity control for RSV inhibitor project, dose response (AID 2410); format: functional; conditions: human respiratory syncytial virus
# H4 = assay: Luminescence Cell-Based Dose Response HTS to Identify Activators of 5'UTR Stem-Loop Driven Prion Protein mRNA Translation in H4 Neuroglioblastoma Cells. [Related pubchem assays: 1829 (Project Summary), 1814 (Primary HTS)]; format: functional; conditions: Homo sapiens
# [4] = Luminescence Cell-Based Dose Response HTS to Identify Activators of Luciferase Translation or Activity in H4 […] Cells. [Related pubchem assays: 1829 (Project Summary), 1814 (Primary HTS)]; format: functional
# H9c2 = assay: cells; format: functional, cell-based; conditions: Rattus norvegicus, H9c2, Myocardium;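 further: confirmatory concentration-response retest of ultra-high-throughput screening hits for modulation of myocardial damage; cell death induced by hydrogen peroxide oxidative stress; compound pretreatment for 60 min then peroxide exposure for 2 h; potency is for protecting the cells against peroxide damage rather than for killing them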
# Cytochrome P450 2D6 = Cytochrome P450 2D6 (Homo sapiens, UniProt P10635);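 further: CYP2D6 member of a cytochrome P450 panel assay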
# Chain of Cytochrome P450 2D6 (P10635 whole entry): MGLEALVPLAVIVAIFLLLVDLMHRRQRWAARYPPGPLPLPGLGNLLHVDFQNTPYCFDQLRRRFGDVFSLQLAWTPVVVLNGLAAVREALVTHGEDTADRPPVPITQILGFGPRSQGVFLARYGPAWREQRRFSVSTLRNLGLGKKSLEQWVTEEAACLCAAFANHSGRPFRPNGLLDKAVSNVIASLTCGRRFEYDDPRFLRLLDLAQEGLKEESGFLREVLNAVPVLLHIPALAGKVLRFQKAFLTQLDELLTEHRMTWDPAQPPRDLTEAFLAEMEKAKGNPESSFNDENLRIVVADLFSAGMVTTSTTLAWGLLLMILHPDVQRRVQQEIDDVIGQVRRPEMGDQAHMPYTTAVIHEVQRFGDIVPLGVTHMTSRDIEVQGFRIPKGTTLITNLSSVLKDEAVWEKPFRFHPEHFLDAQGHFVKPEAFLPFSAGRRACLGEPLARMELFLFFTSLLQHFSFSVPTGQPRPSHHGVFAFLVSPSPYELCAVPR
# [5] = biological target: Luciferin 4-monooxygenase (Photinus pyralis, UniProt P08659); assay: inhibition of purified Photinus pyralis luciferase – biochemical, luminescence, dose response (AID 1891)
# Chain of Luciferin 4-monooxygenase (P08659 whole entry): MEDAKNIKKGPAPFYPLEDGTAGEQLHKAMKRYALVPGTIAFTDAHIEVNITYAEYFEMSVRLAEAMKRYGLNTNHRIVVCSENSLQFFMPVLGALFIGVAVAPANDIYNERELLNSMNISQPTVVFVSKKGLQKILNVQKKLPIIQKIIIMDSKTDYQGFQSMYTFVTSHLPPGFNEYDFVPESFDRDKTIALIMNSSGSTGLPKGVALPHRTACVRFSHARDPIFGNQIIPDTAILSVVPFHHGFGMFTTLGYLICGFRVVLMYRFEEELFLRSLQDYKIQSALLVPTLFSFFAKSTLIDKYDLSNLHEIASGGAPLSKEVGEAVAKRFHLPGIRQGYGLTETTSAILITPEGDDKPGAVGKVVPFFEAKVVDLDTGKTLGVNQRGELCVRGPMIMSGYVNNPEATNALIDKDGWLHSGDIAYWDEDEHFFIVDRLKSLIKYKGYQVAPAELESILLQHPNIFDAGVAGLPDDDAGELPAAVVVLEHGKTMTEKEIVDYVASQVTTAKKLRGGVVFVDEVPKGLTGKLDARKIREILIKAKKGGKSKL
# [6] = Luminescence Cell-Based Dose Confirmation HTS to Identify Inhibitors of Platelet Dense Granule Release. [Related pubchem assays: 1663 (Primary HTS), 1678 (Summary of Project)]; format: functional
# [7] = NIH3T3 cell viability loss – ATP luminescence, mouse fibroblasts, counter-screen, dose response (AID 2010); format: functional, cell-based;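 further: cells exposed to compound for about 90 hours before reading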
# [8] = Trypanosoma cruzi growth suppression in host cells – NIH3T3 host cells, beta-gal luminescence, confirmation (AID 2044); format: functional, cell-based;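 further: intracellular parasites grown in NIH/3T3 mouse fibroblasts as host cells; luminescent beta-galactosidase reporter signal from transgenic T. cruzi replicating inside host cells; inhibitors lower the luminescence signal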
# [9] = biological target: FAD-linked sulfhydryl oxidase ALR (Homo sapiens, UniProt P55789); assay: ALR-catalysed DTT oxidation blockers – biochemical, H2O2 detection, luminescence, cherry-pick, dose response (AID 493248)
# Chain of FAD-linked sulfhydryl oxidase ALR (P55789 whole entry): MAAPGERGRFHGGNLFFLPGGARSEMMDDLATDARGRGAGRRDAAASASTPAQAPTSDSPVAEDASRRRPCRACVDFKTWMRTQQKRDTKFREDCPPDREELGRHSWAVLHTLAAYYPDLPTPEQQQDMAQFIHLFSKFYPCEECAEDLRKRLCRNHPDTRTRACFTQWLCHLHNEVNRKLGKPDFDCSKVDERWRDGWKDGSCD
# [10] = biological target: T2, Replicative DNA helicase DnaB (Mycobacterium tuberculosis, UniProt P9WMR3); assay: DnaB intein splicing inhibitors, dose response, biochemical, cell-free fluorescence (AID 449749); format: functional
# T2 sequence (P9WMR3 whole entry): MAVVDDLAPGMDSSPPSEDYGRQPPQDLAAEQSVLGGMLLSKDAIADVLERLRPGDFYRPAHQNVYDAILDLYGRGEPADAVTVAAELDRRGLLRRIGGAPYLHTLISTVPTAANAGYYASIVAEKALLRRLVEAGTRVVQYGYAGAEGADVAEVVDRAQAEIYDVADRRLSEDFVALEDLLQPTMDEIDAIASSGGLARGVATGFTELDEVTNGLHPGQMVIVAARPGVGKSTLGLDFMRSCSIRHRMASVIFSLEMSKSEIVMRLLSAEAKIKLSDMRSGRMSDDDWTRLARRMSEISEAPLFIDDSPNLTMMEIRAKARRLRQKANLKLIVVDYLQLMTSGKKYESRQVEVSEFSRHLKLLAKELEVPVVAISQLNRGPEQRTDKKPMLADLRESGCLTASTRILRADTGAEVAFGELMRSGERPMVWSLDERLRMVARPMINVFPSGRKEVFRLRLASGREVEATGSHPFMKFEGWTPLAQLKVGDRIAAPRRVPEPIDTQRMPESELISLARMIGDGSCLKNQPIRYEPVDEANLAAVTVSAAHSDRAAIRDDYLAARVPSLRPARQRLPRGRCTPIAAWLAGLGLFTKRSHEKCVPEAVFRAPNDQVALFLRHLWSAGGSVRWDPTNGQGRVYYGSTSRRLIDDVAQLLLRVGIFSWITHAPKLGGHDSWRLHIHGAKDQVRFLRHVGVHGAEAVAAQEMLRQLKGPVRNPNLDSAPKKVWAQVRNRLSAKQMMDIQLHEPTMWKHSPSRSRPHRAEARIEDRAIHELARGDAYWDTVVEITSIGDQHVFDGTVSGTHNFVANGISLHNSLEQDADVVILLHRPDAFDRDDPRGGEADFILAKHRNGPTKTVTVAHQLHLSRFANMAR
# Protein RecA = biological target: T3, Protein RecA (Mycobacterium tuberculosis, UniProt P9WHJ3); assay: Fluorescence Cell-Free Homogeneous Dose Retest to Identify Inhibitors of RecA-Intein Splicing Activity. [Related pubchem assays (depositor defined):AID2097, AID2223, AID489010, AID492950]; format: functional
# T3 sequence (P9WHJ3 whole entry): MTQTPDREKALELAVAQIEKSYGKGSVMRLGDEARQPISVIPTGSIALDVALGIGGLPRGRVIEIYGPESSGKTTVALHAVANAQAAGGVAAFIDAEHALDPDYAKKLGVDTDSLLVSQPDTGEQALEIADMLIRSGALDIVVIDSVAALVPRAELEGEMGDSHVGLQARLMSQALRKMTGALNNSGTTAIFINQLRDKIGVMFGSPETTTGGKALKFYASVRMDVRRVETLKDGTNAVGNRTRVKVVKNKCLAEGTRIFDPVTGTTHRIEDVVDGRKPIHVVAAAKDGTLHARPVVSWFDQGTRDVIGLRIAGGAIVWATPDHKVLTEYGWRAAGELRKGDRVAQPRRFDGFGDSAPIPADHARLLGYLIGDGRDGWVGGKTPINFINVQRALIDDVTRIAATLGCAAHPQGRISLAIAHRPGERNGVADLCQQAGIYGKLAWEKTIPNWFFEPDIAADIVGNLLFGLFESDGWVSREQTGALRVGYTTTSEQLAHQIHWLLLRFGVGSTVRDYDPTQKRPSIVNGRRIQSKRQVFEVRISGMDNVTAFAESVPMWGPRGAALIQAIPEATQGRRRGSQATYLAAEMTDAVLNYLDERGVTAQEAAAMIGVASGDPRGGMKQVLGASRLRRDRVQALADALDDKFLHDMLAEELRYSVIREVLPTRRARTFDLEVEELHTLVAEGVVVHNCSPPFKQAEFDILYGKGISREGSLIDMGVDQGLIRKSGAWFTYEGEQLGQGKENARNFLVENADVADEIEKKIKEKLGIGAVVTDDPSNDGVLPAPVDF
# Fatty acid synthase [11] = biological target: T4, Fatty acid synthase (Homo sapiens, UniProt P49327); assay: inhibition of human FAS-TE enzyme activity – biochemical, endpoint fluorescence intensity, uHTS hits, dose response (AID 624327); format: functional;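 further: fluorescence from hydrolysis of an O-methyl fluorescein acyl ester substrate by the enzyme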
# T4 sequence (P49327 whole entry): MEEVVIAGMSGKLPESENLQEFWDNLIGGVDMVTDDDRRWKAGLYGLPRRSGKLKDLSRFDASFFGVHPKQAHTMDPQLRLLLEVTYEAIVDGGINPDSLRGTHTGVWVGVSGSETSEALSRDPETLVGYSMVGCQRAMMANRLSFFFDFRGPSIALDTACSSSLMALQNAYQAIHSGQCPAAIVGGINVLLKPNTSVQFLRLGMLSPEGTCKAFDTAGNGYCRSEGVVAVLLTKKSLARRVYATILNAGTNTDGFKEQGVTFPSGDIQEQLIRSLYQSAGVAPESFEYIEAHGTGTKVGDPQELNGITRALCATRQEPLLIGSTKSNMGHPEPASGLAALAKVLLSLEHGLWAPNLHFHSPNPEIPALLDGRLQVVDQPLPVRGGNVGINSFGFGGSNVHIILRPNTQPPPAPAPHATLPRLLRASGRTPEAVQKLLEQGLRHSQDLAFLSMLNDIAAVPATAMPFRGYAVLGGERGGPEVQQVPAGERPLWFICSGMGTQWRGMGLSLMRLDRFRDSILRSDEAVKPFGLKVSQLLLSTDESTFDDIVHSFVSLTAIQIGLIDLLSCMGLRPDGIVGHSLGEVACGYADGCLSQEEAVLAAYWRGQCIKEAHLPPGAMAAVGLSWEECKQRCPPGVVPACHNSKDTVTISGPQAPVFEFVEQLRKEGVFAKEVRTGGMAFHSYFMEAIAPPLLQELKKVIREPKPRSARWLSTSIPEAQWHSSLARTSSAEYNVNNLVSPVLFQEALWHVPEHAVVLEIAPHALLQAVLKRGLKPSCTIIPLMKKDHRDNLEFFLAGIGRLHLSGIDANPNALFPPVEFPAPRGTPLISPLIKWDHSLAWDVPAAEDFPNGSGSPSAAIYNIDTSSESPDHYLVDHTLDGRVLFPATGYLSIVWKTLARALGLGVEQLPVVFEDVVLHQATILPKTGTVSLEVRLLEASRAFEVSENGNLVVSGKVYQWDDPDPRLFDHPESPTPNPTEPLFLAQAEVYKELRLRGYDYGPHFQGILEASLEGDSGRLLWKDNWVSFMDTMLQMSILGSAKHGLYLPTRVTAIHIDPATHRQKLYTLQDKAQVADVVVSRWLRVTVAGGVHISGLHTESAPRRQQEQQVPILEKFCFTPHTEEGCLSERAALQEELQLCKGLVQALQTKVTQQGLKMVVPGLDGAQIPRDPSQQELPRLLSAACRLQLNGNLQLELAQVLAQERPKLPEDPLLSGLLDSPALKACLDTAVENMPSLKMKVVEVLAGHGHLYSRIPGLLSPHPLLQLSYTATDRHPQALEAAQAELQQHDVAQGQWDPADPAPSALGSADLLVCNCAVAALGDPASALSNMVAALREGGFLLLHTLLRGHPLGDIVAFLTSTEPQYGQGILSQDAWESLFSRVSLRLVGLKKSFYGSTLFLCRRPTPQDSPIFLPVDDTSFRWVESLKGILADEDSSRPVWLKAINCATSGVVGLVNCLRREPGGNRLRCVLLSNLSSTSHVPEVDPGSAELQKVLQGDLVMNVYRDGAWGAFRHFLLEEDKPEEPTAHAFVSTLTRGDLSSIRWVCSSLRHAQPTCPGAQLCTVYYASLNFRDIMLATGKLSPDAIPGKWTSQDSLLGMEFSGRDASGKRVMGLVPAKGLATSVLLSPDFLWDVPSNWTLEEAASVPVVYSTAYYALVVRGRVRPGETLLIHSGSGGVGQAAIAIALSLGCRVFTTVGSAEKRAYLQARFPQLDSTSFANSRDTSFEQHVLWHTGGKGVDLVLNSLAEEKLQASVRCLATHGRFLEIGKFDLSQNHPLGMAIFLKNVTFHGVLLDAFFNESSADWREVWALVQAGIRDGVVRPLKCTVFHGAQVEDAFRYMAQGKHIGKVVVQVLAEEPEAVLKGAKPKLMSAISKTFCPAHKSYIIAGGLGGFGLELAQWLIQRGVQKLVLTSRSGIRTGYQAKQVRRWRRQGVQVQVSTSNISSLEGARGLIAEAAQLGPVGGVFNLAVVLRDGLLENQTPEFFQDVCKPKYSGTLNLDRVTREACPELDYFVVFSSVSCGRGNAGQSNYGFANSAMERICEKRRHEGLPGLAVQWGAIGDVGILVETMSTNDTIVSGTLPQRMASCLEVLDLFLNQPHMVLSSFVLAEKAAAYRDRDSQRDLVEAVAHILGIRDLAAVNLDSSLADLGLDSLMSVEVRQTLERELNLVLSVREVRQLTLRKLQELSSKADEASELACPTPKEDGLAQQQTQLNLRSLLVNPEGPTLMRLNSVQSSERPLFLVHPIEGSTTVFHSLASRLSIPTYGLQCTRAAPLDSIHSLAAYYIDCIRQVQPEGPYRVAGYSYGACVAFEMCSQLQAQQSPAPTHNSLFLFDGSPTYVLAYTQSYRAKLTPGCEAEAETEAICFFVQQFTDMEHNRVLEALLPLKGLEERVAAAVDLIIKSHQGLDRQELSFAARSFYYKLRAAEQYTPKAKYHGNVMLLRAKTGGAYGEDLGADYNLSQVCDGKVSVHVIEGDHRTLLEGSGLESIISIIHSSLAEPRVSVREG
# Fatty acid synthase [12] = biological target: T4, Fatty acid synthase; assay: inhibition of human FAS-TE enzyme activity – biochemical, kinetic fluorescence intensity, dose response (AID 624326); format: functional;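 further: rate of fluorescence rise from hydrolysis of a fluorogenic O-methyl fluorescein ester substrate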
structure (smiles),measurement,setting,value
COc1ccc(OC)c([N+](=O)[O-])c1C(N)=O,IC50,[1],3.49 µM (active)
Cc1ccc(-n2c(C)nc3c(cnn3-c3ccc(C)c(C)c3)c2=O)cc1C,EC50,[2],10.2 µM (active)
same,CC50,[3],48.5 µM (active)
same,EC50,H4,43.9 µM (active)
same,EC50,[4],8.78 µM (active)
O=C(N=Nc1c(O)n(C2OC(=O)c3ccccc32)c2ccccc12)c1ccco1 (stereo unspecified),EC50,[2],11.5 µM (active)
same,EC50,H4,15 µM (active)
same,EC50,[4],11.4 µM (active)
CC(=O)Nc1ccc(N/C=C2\C(=O)NC(=O)N(Cc3ccco3)C2=O)cc1,IC50,[1],9.73 µM (active)
O=C(Nc1cc(=O)c2ccccc2o1)N1CCCCC1,IC50,H9c2,22.8 µM (active)
O=C(Nc1cccc(Cl)c1)c1ccc2ncsc2c1,EC50,[2],4.28 µM (active)
same,EC50,H4,34.6 µM (active)
same,EC50,[4],91.3 µM (active)
CCn1c(CNC(=O)COc2ccc(C(C)C)cc2)nnc1SCC(=O)Nc1cc(F)ccc1C,AC50,Cytochrome P450 2D6,22.4 µM (inconclusive)
same,IC50,[1],16.7 µM (active)
COc1cc(C2NC(S)=NC(C)=C2C(=O)Nc2ccc(C)cc2)ccc1O (stereo unspecified),EC50,[2],15.1 µM (active)
same,EC50,H4,21.8 µM (active)
same,EC50,[4],22.4 µM (active)
CCCCNC(=O)Nc1ccc(Br)cn1,EC50,[5],> 112 µM (not active)
same,EC50,[6],> 112 µM (not active)
Cc1c2c(nc3ccccc13)CCC(C(C)(C)C)C2 (stereo unspecified),EC50,[2],26.6 µM (active)
same,EC50,[7],> 60 µM (not active)
same,CC50,[3],44.4 µM (active)
same,EC50,H4,12.7 µM (active)
same,EC50,[4],4.26 µM (active)
same,EC50,[8],3.67 µM (active)
CCCn1c(C2CC(=O)N(c3cc(OC)ccc3OC)C2)nc2ccccc21 (stereo unspecified),EC50,[5],> 112 µM (not active)
same,EC50,[6],> 112 µM (not active)
CN(C)c1ccc(NC(=O)CN2CCN(S(=O)(=O)c3cc(Cl)ccc3Cl)CC2)cc1,EC50,[5],> 112 µM (not active)
same,AC50,[9],2.31 µM (active)
same,EC50,[6],> 112 µM (not active)
COCC(C)n1c(C)cc(C(=O)COC(=O)c2c(NC(C)=O)sc(C)c2C)c1C (stereo unspecified),IC50,[1],9.88 µM (active)
COC(=O)c1cc(Cl)c(NC(=O)/C=C/c2ccc(OC)c(OC)c2)cc1OC,IC50,H9c2,22.1 µM (active)
CCc1nc(N2CCN(C(=O)c3ccco3)CC2)c2oc3ccccc3c2n1,EC50,[5],> 112 µM (not active)
same,IC50,H9c2,> 79 µM (inactive)
same,EC50,[6],> 112 µM (not active)
O=C(COc1ccccc1[N+](=O)[O-])Nc1ccc(NC(=O)c2cc3ccccc3o2)cc1,EC50,[2],> 120 µM (not active)
same,EC50,H4,> 120 µM (not active)
same,EC50,[4],> 120 µM (not active)
N#CC1=C(N)C(C#N)(C#N)C(c2cccnc2)C2CN(C(=O)OCc3ccccc3)CC=C12 (stereo unspecified),AC50,[10],> 380 µM (inactive)
same,EC50,[5],> 112 µM (not active)
same,EC50,[6],15.6 µM (active)
same,EC50,Protein RecA,2.59 µM (active)
CN1CCc2c(sc3nc(SCC(=O)NCc4ccco4)n(-c4ccccc4)c(=O)c23)C1,EC50,[2],17.9 µM (active)
same,EC50,H4,25.5 µM (active)
same,EC50,[4],10.2 µM (active)
CCOc1cccc2cc(C(=O)NCCC3=CCCCC3)c(=O)oc12,EC50,[2],7.15 µM (active)
same,EC50,H4,25 µM (active)
same,EC50,[4],> 120 µM (not active)
same,IC50,Fatty acid synthase [11],3.95 µM (active)
same,IC50,Fatty acid synthase [12],4.15 µM (active)
COc1ccccc1OP(=O)(Nc1cccnc1)Oc1ccccc1OC,IC50,H9c2,> 79 µM (inactive)
Cc1ccc(NC(=O)CN(C)C(=O)c2cc(-c3ccco3)nc3ccccc23)cc1,IC50,[1],3.88 µM (active)
Cc1ccc(C(=O)O)cc1-c1ccc(C=C2C(=O)c3ccccc3C2=O)o1,IC50,[1],13.7 µM (active)
c1ccc(-c2ccc(-c3n[nH]cc3CN3CCC(N4CCSCC4)CC3)cc2)cc1,EC50,[2],14.4 µM (active)
same,EC50,H4,12.4 µM (active)
same,EC50,[4],15.8 µM (active)
COn1c(=O)c(=O)n(O)c2ccccc21,EC50,[5],> 112 µM (not active)
same,EC50,[6],> 112 µM (not active)
Cc1ccc(S(=O)(=O)N2CCN(C(=O)COC(=O)CCOc3ccccc3C)CC2)c(C)c1,IC50,[1],10.7 µM (active)
Cc1nn(-c2ccccc2)c(Cl)c1C(=O)NNC(=O)c1ccccc1O,IC50,H9c2,13 µM (active)
Cc1cc2ccccn2c1C(=O)c1ccc(N/N=C/c2ccc(C(=O)O)cc2)c([N+](=O)[O-])c1,IC50,[1],1.02 µM (active)
CC(=O)c1ccc(-c2cnc3c(NC=O)cc(-c4cccc(NS(C)(=O)=O)c4)cn23)cc1,IC50,H9c2,> 79 µM (inactive)
N#Cc1ccc(OCC(=O)Nc2nc(-c3ccccn3)cs2)cc1,IC50,H9c2,> 79 µM (inactive)
Cc1cc(CNC(=O)COC(=O)Cn2[nH]c(=O)c3ccccc3c2=O)cc(C)c1O,IC50,H9c2,> 79 µM (inactive)
CC1(C(=O)Nc2cccc(OC(F)(F)F)c2)Cc2c(-c3ccc(C(N)=O)cc3)ccnc2O1 (stereo unspecified),IC50,H9c2,> 79 µM (inactive)

# — ChEMBL document CHEMBL1201862, “PubChem BioAssay data set” (2004)
